Assay results published in paper PMC12175907 (Science Advances, 2025).

Columns and labels:
DIO GIPR KO mice = assay: chronic treatment, food intake and body weight, DIO GIPR KO mice; format: in vivo, mouse; conditions: inferred from GIPR KO DIO mice
Excerpt: DIO adult male C57BL/6 mice (Taconic) C57BL/6 (n = 23, weighing ~43 g at arrival), GLP-1R KO (germline knockout line: 11549, n = 24, weighing ~38 g at arrival), and GIPR KO mice (germline knockout line: 2886, n = 24, weighing ~35 g at arrival) were used. Upon arrival, mice were individually housed and continued to be fed ad libitum on high-fat/high-sugar diet (60% fat diet, 12492, Research Diets).
(§1) GIPFA-085 (GIP-085), tirzepatide, and GLP-140 were designed and produced by Eli Lilly and Company. GIP-085, GLP-140, and semaglutide (Cayman Chemical) were dissolved in 40 mM tris-HCl buffer (pH 8) and 0.02% Tween 80. For the study in mice, all drugs were injected subcutaneously at a volume of 5 ml/kg of body weight. In rats, all drugs were injected intraperitoneally, at a volume of 1 ml/kg of body weight, except when noted. In shrews, all drugs were injected intraperitoneally at a volume of 10 ml/kg of body weight.
C57BL/6 wild-type (n = 23), GLP-1R KO (n = 24), and GIPR KO mice (n = 24) received daily subcutaneous administration of GIP-085 (300 nmol/kg), semaglutide (3 nmol/kg), GIP-085/semaglutide combo, or vehicle for 16 days. Food intake and body weight were manually measured daily. […] Body composition of mice was determined using quantitative nuclear magnetic resonance analysis (ECHO MRI, 3-1 Composition Analyzer; Echo Medical Systems). […]

DIO wild-type mice = assay: body composition (ECHO MRI), DIO wild-type mice; format: in vivo, C57BL/6 mouse; conditions: 16 days daily sc, GIP-085 300 nmol/kg, semaglutide 3 nmol/kg, mean ± SEM, n=5-6 per group
Protocol: (§2) C57BL/6 wild-type (n = 23), GLP-1R KO (n = 24), and GIPR KO mice (n = 24) received daily subcutaneous administration of GIP-085 (300 nmol/kg), semaglutide (3 nmol/kg), GIP-085/semaglutide combo, or vehicle for 16 days. Food intake and body weight were manually measured daily. The average body weight at the start of the experiment was 43.7 ± 0.4 g for the wild-type group, 39.0 ± 0.6 g for the GLP-1R KO group, and 36.5 ± 0.4 g for the GIPR KO group. Body composition of mice was determined using quantitative nuclear magnetic resonance analysis (ECHO MRI, 3-1 Composition Analyzer; Echo Medical Systems). At the end of the experiment, the animals were euthanized by CO2.

GLP-1R KO DIO mice = assay: body composition (ECHO MRI), GLP-1R KO DIO mice; format: in vivo, mouse; conditions: n=6 per group
Protocol: as §2

rats = assay: food and kaolin consumption and body weight in rats (semaglutide, tirzepatide); format: in vivo, Sprague-Dawley rat
Excerpt: Adult male Sprague-Dawley rats (Charles River) weighing ~250 to 270 g (n = 45) at arrival were housed under a 12-hour/12-hour light/dark cycle in a temperature-controlled and humidity-controlled vivarium. Rats were individually housed in hanging wire-bottom cage with ad libitum access to chow diet (Purina Lab Diet 5001) or, when noted, to high-fat/high-sugar diet (60% fat diet, 12492, Research Diets) and tap water and had ad libitum access to kaolin pellets (Research Diets, K50001). Rats were exposed to kaolin for at least 5 days prior to measuring kaolin consumption in pica testing. Kaolin intake and food consumption were measured simultaneously as the presence of kaolin in the cage, and its subsequent ingestion, has usually negligible effects on the hypophagic and body weight–lowering effects of the treatments.
as §1
In two separate cohorts of rats (n = 10 per group, body weight ~ 460 ± 9 g), food consumption, kaolin intake, and body weight were measured after an intraperitoneal administration of vehicle, semaglutide (10 and 100 nmol/kg), or tirzepatide (10 and 100 nmol/kg), respectively. Food and kaolin intake were measured at 3, 6, 24, and 48 hours postinjection, and body weight was measured at 0, 24, and 48 hours. For each drug, a within-subject paradigm was used, with each round of injections separated by 7 days.

shrews [1] = assay: IPGTT, semaglutide, shrews; format: in vivo, Suncus murinus; conditions: 10, 100 and 500 nmol/kg ip, 30 min before glucose 2 g/kg ip, 20 min post-glucose, n = 8 per group
Excerpt: (§3) Adult male shrews (S. murinus) weighing ~50 to 80 g (n = 84 total) were bred and maintained in the De Jonghe Lab (University of Pennsylvania). These animals were offspring from a colony previously maintained at the University of Pittsburgh Cancer Institute (C. Horn); a Taiwanese strain was derived from stock originally supplied by the Chinese University of Hong Kong. Shrews were singly housed in plastic cages (37.3 cm by 23.4 cm by 14 cm, Innovive) under a 12-hour/12-hour light/dark cycle in a temperature-controlled and humidity-controlled environment. Animal were fed ad libitum with a mixture of feline (75%, Laboratory Feline Diet 5003, Lab Diet) and mink food (25%, High Density Ferret Diet 5LI4, Lab Diet) and had ad libitum access to tap water except where noted.
The protocol for performing an IPGTT in shrews (n = 16) was previously described ([27]). Briefly, each shrews received intraperitoneal injection of semaglutide (10, 100, and 500 nmol/kg) or vehicle (10 ml/kg body weight) followed 30 min later by a glucose bolus injection [2 g/kg, intraperitoneally (ip)]. Blood glucose readings were taken at −30, 0, 20, 40, 60, and 120 min post-glucose administration. This study was conducted using a partial within-subject design, with each animal receiving two treatments separated by a 7-day interval.

shrews [2] = assay: food intake and body weight, semaglutide, GIP-085 and combo, shrews; format: in vivo, Suncus murinus; conditions: semaglutide alone, 500 nmol/kg ip; n = 8
Excerpt: as §3
First, we compared the effects of semaglutide (500 nmol/kg), GIP-085 (300 nmol/kg), GIP-085/semaglutide, or vehicle on food intake and body weight in the same animals (n = 8, ~54 ± 2 g) using in a within-subject, counterbalanced design. This experiment was conducted as described above. Each treatment was 7 days apart.

shrews [3] = assay: emesis, semaglutide, GIP-085 and combo, shrews; format: in vivo, Suncus murinus; conditions: semaglutide 500 nmol/kg ip; 120 min; n = 10
Excerpt: as §3
We then evaluated the emetogenic actions of semaglutide (500 nmol/kg), GIP-085 (300 nmol/kg), GIP-085/semaglutide, or vehicle in a different cohort of shrews (n = 10). The animals were habituated to the experimental conditions as described above, injected intraperitoneally with semaglutide ([…]), GIP-085 (300 nmol/kg), GIP-085/semaglutide, or vehicle and then video-recorded (Vixia HF-R62, Canon) for 120 min. After 120 min, the animals were returned to their cages. Treatments were separated by 7 days. Emesis parameters were quantified as described above.

[4] = 100 nmol/kg ip, n = 10 to 20 per group
[5] = 10 and 100 nmol/kg ip, n = 10 per group, vs vehicle

semaglutide
cross-reactivity at the GIPR (DIO GIPR KO mice): lack of cross-reactivity | total fat mass at the end of the experiment (DIO wild-type mice; Veh: 17.9±0.5g): 12.2 ± 0.8 g | total lean mass at the end of the experiment (DIO wild-type mice; Veh: 24.8±0.6g): 24.6 ± 0.7 g | total fat mass at the end of the experiment (GLP-1R KO DIO mice; 16 days daily sc, GIP-085 300 nmol/kg, semaglutide 3 nmol/kg, mean ± SEM, Veh: 17.3±0.8g): 15.5 ± 0.9 g | total lean mass at the end of the experiment (GLP-1R KO DIO mice; 16 days daily sc, GIP-085 300 nmol/kg, semaglutide 3 nmol/kg, mean ± SEM, Veh: 24.1±0.6g): 23.9 ± 0.7 g | body composition changes (GLP-1R KO DIO mice; semaglutide 3 nmol/kg and dual semaglutide/GIP-085, 16 days): No changes | kaolin intake (rats; 100 nmol/kg ip, n = 10 per group, vs vehicle): causes significant malaise (i.e., kaolin intake) | hypophagic responses, semaglutide vs tirzepatide (rats; [4]): comparable hypophagic responses | kaolin consumption, semaglutide vs tirzepatide (rats; [4]): significantly higher than that caused by tirzepatide | kaolin consumption, semaglutide vs tirzepatide (rats; 100 nmol/kg ip, n = 10 to 20 per group, listed as Semaglutide): induces higher kaolin consumption than tirzepatide treatment | body weight (rats; [5]): causes body weight loss in a dose-dependent manner | food intake (rats; [5]): dose-dependently suppresses food intake | blood glucose levels following glucose (shrews [1]): significantly reduced glucose levels in a dose-dependent manner | blood glucose levels following glucose (shrews [1]; listed as Semaglutide): dose-dependently suppresses blood glucose levels | body weight (shrews [2]): body weight loss | food intake (shrews [2]): induced anorexia | shrews that experienced emesis (shrews [3]): 60%
